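A five-concentration, 48-hour dose response in 96-well plates underlies each endpoint, interpolated linearly between surrounding concentrations. TGI is the concentration that stops growth completely.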
Assays:
Assay in all cases: NCI tumour cell line growth inhibition, 48 h
[1] = test system: U251 CNS
[2] = test system: LOX IMVI melanoma
[3] = test system: CAKI-1 renal
[4] = test system: SR leukemia
[5] = test system: HOP-18 NSCLC
[6] = test system: OVCAR-3 ovarian
[7] = test system: KM12 colon
[8] = test system: OVCAR-8 ovarian
[9] = test system: HT29 colon
[10] = test system: UO-31 renal
[11] = test system: HCC-2998 colon
[12] = test system: SNB-19 CNS
[13] = test system: MOLT-4 leukemia
[14] = test system: SN12C renal
[15] = test system: RPMI-8226 leukemia
[16] = test system: NCI-H226 lung
[17] = test system: HOP-92 NSCLC
[18] = test system: A549 NSCLC
[19] = test system: LXFL 529 NSCLC
[20] = test system: NCI-H23 lung
[21] = test system: SK-MEL-5 melanoma
[22] = test system: HL-60(TB) leukemia
[23] = test system: 786-0 renal
[24] = test system: MALME-3M melanoma
[25] = test system: M19-MEL melanoma
[26] = test system: EKVX NSCLC
[27] = test system: IGROV1 ovarian
[28] = test system: XF 498 CNS
[29] = test system: HOP-62 NSCLC
[30] = test system: M14 melanoma
[31] = test system: SF-268 CNS
[32] = test system: UACC-62 melanoma
[33] = test system: SF-295 CNS
[34] = test system: CCRF-CEM leukemia
[35] = test system: NCI-H460 lung
[36] = test system: K-562 leukemia
[37] = test system: ACHN renal
[38] = test system: OVCAR-4 ovarian
[39] = test system: OVCAR-5 ovarian
[40] = test system: SNB-75 CNS
[41] = test system: A498 renal
[42] = test system: RXF 393 renal
[43] = test system: DLD-1 colon
[44] = test system: UACC-257 melanoma
[45] = test system: SK-MEL-28 melanoma
[46] = test system: KM20L2 colon
[47] = test system: SK-OV-3 ovarian
[48] = test system: HCT-15 colon
[49] = test system: SNB-78 CNS
[50] = test system: COLO 205 colon
[51] = test system: DMS 114 small cell lung
[52] = test system: HCT-116 colon
[53] = test system: SW-620 colon
[54] = test system: SF-539 CNS
[55] = test system: TK-10 renal
[56] = test system: NCI-H522 lung
[57] = test system: SK-MEL-2 melanoma
[58] = test system: DMS 273 small cell lung

## Cc1cc(O)c2c3c1C(=O)Oc1c(CO)c(O)c(C(=O)O)c(c1O3)C=NN=Cc1c3c(c(CO)c(O)c1C(=O)O)OC(=O)c1c(C)cc(O)c(c1O3)C=NN=C2
[1]
  TGI: > 100 µM
[2]
  TGI: > 100 µM
[3]
  TGI: > 100 µM
[4]
  TGI: > 1 µM
[5]
  TGI: > 100 µM
[6]
  TGI: 88.1 µM
[7]
  TGI: > 100 µM
[8]
  TGI: > 100 µM
[9]
  TGI: > 100 µM
[10]
  TGI: > 100 µM
[11]
  TGI: > 100 µM
[12]
  TGI: > 100 µM
[13]
  TGI: > 1 µM
[14]
  TGI: > 100 µM
[15]
  TGI: > 1 µM
[16]
  TGI: > 100 µM
[17]
  TGI: > 100 µM
[18]
  TGI: > 100 µM
[19]
  TGI: > 100 µM
[20]
  TGI: > 100 µM
[21]
  TGI: > 100 µM
[22]
  TGI: > 1 µM
[23]
  TGI: > 100 µM
[24]
  TGI: > 100 µM
[25]
  TGI: > 100 µM
[26]
  TGI: > 100 µM
[27]
  TGI: > 100 µM
[28]
  TGI: > 100 µM
[29]
  TGI: > 100 µM
[30]
  TGI: > 100 µM
[31]
  TGI: > 100 µM
[32]
  TGI: > 100 µM
[33]
  TGI: > 100 µM
[34]
  TGI: > 1 µM
[35]
  TGI: > 100 µM
[36]
  TGI: > 1 µM
[37]
  TGI: > 100 µM
[38]
  TGI: > 100 µM
[39]
  TGI: > 100 µM
[40]
  TGI: > 100 µM
[41]
  TGI: > 100 µM
[42]
  TGI: > 100 µM
[43]
  TGI: > 100 µM
[44]
  TGI: > 100 µM
[45]
  TGI: > 100 µM
[46]
  TGI: > 100 µM
[47]
  TGI: > 100 µM
[48]
  TGI: > 100 µM
[49]
  TGI: > 100 µM
[50]
  TGI: > 100 µM
[51]
  TGI: > 100 µM
[52]
  TGI: > 100 µM
[53]
  TGI: > 100 µM
[54]
  TGI: > 100 µM
[55]
  TGI: > 100 µM

## COc1ccc2cc3[n+](cc2c1O)CCc1cc2c(cc1-3)OCO2
[1]
  TGI: > 100 µM
[2]
  TGI: > 100 µM
[56]
  TGI: > 100 µM
[5]
  TGI: > 100 µM
[6]
  TGI: > 100 µM
[7]
  TGI: > 100 µM
[8]
  TGI: > 100 µM
[9]
  TGI: > 100 µM
[10]
  TGI: > 100 µM
[11]
  TGI: > 100 µM
[12]
  TGI: > 100 µM
[13]
  TGI: > 100 µM
[14]
  TGI: > 100 µM
[15]
  TGI: > 100 µM
[16]
  TGI: > 100 µM
[18]
  TGI: > 100 µM
[20]
  TGI: > 100 µM
[22]
  TGI: > 100 µM
[23]
  TGI: > 100 µM
[24]
  TGI: > 100 µM
[25]
  TGI: > 100 µM
[26]
  TGI: > 100 µM
[27]
  TGI: > 100 µM
[28]
  TGI: > 100 µM
[29]
  TGI: > 100 µM
[30]
  TGI: > 100 µM
[31]
  TGI: > 100 µM
[32]
  TGI: > 100 µM
[33]
  TGI: > 100 µM
[34]
  TGI: > 100 µM
[35]
  TGI: > 100 µM
[36]
  TGI: > 100 µM
[57]
  TGI: > 100 µM
[37]
  TGI: > 100 µM
[38]
  TGI: > 100 µM
[39]
  TGI: > 100 µM
[40]
  TGI: > 100 µM
[41]
  TGI: > 100 µM
[42]
  TGI: > 100 µM
[43]
  TGI: > 100 µM
[44]
  TGI: > 100 µM
[45]
  TGI: > 100 µM
[46]
  TGI: > 100 µM
[47]
  TGI: > 100 µM
[48]
  TGI: > 100 µM
[49]
  TGI: > 100 µM
[50]
  TGI: > 100 µM
[52]
  TGI: > 100 µM
[53]
  TGI: > 100 µM
[54]
  TGI: > 100 µM
[55]
  TGI: > 100 µM

## NC(=O)C1(c2ccccc2)Nc2ccccc2S1 (stereo not given)
[1]
  TGI: > 100 µM
[2]
  TGI: > 100 µM
[3]
  TGI: > 100 µM
[4]
  TGI: > 100 µM
[56]
  TGI: > 100 µM
[5]
  TGI: > 100 µM
[6]
  TGI: > 100 µM
[7]
  TGI: > 100 µM
[8]
  TGI: > 100 µM
[9]
  TGI: > 100 µM
[10]
  TGI: > 100 µM
[11]
  TGI: > 100 µM
[12]
  TGI: > 100 µM
[13]
  TGI: > 100 µM
[14]
  TGI: > 100 µM
[15]
  TGI: > 100 µM
[16]
  TGI: > 100 µM
[18]
  TGI: > 100 µM
[19]
  TGI: > 100 µM
[20]
  TGI: > 100 µM
[21]
  TGI: > 100 µM
[22]
  TGI: > 100 µM
[24]
  TGI: > 100 µM
[25]
  TGI: > 100 µM
[26]
  TGI: > 100 µM
[28]
  TGI: > 100 µM
[29]
  TGI: > 100 µM
[30]
  TGI: > 100 µM
[31]
  TGI: > 100 µM
[32]
  TGI: > 100 µM
[34]
  TGI: > 100 µM
[35]
  TGI: > 100 µM
[36]
  TGI: > 100 µM
[57]
  TGI: > 100 µM
[37]
  TGI: > 100 µM
[39]
  TGI: > 100 µM
[42]
  TGI: > 100 µM
[43]
  TGI: > 100 µM
[45]
  TGI: > 100 µM
[46]
  TGI: > 100 µM
[47]
  TGI: > 100 µM
[48]
  TGI: > 100 µM
[50]
  TGI: > 100 µM
[51]
  TGI: > 100 µM
[58]
  TGI: > 100 µM
[52]
  TGI: > 100 µM
[53]
  TGI: > 100 µM
[54]
  TGI: > 100 µM
[55]
  TGI: > 100 µM
